The source of these data is ChEMBL document CHEMBL1140192, “Sorocenols G and H, anti-MRSA oxygen heterocyclic Diels-Alder-type adducts from Sorocea muriculata roots” (J Nat Prod, 2008).

Values after ≈ are worked out from the molar mass of the structure shown. Active and inactive are the calls of the source.

Common to all, as to assay type: functional, organism-based
Assay [1] deals with Mycobacterium intracellulare. In words: Antibacterial activity against Mycobacterium intracellular ATCC 23068 at 20 ug/mL after 68 to 72 hrs.
In assay [2] the test system is Escherichia coli. In words: Antibacterial activity against Escherichia coli ATCC 35218 at 20 ug/mL after 18 to 24 hrs.
Assay [3] relates to Cryptococcus neoformans. In words: Antifungal activity against Cryptococcus neoformans ATCC 90113 after 68 to 72 hrs.
In assay [4] the test system is Aspergillus fumigatus. In words: Antifungal activity against Aspergillus fumigatus ATCC 90906 after 68 to 72 hrs.
In assay [5] the test system is Staphylococcus aureus. In words: Antibacterial activity against methicillin-resistant Staphylococcus aureus ATCC 43300 after 18 to 24 hrs.
Assay [6] concerns Pseudomonas aeruginosa. In words: Antibacterial activity against Pseudomonas aeruginosa ATCC 27853 at 20 ug/mL after 18 to 24 hrs.
Assay [7] concerns Candida albicans. In words: Antifungal activity against Candida albicans ATCC 90028 after 18 to 24 hrs.

Take `CC1=C[C@@H]2c3c(O)cc(-c4cc5ccc(O)cc5o4)cc3O[C@]3(c4ccc(O)c5c4OC(C)(C)C=C5)Oc4cc(O)ccc4[C@H](C1)[C@@H]23` [SOROCENOL G]: the result in assay [1], in assay [2], in assay [4] and in assay [6] was inactive. Besides, the outcome in assay [3] and in assay [7] was Active. The midpoint of inhibition in assay [5], the IC50, lay at 1500 nM. Moreover, the MBC (in general, the smallest concentration meeting the test's criterion for killing) in assay [5] stood at 31.8 µM (≈ 20 µg/mL). Also, in assay [5], inhibition of growth (MIC) required 4 µM (≈ 2.51 µg/mL).
For the compound `CC(C)=CCc1c(O)ccc(C(=O)[C@H]2[C@H](c3c(O)cc(-c4cc5ccc(O)cc5o4)cc3O)C=C(C)C[C@H]2c2ccc(O)cc2O)c1O` [SOROCENOL H], the outcome in assay [1], in assay [2] and in assay [6] was inactive. Moreover, the IC50 (as a rule, the point on the concentration scale where inhibition reaches its midpoint) in assay [3] was determined as 5400 nM; in assay [4] it was 10000 nM; in assay [5], 500 nM; in assay [7], 5400 nM. Besides, the values for the MFC in assay [3], in assay [4] and in assay [7] were 7.7 µM (≈ 5 µg/mL), 30.8 µM (≈ 20 µg/mL) and 30.8 µM (≈ 20 µg/mL), respectively. Moreover, the MIC (in general, the lowest concentration found to suppress growth) in assay [3] amounted to 7.7 µM (≈ 5 µg/mL); in assay [4], 15.4 µM (≈ 9.99 µg/mL); in assay [5] it was 1.9 µM (≈ 1.23 µg/mL); in assay [7], 15.4 µM (≈ 9.99 µg/mL). In addition, the MBC in assay [5] is 30.8 µM (≈ 20 µg/mL).
For `C[C@@H]1[C@H](O)[C@@H](C)/C=C/C=C/C=C/C=C/C=C/C=C/C=C/[C@H](O[C@@H]2O[C@H](C)[C@@H](O)[C@H](N)[C@@H]2O)C[C@@H]2O[C@](O)(C[C@@H](O)C[C@@H](O)[C@H](O)CC[C@@H](O)C[C@@H](O)CC(=O)O[C@H]1C)C[C@H](O)[C@H]2C(=O)O` [AMPHOTERICIN B], in assay [3], the IC50 stood at 900 nM; the MFC (as a rule, the smallest concentration meeting the test's criterion for killing the fungus) stood at 2.5 µM (≈ 2.31 µg/mL); inhibition of growth (MIC) required 1.4 µM (≈ 1.29 µg/mL). Further, in assay [4], the midpoint of inhibition, the IC50, lay at 1600 nM; the MFC came to 2.7 µM (≈ 2.5 µg/mL); it took 2.7 µM (≈ 2.5 µg/mL) to inhibit growth (MIC). In assay [7], this compound gave an IC50 of 300 nM, an MFC of 1.4 µM (≈ 1.29 µg/mL) and an MIC of 0.7 µM (≈ 0.647 µg/mL).
For `O=C(O)c1cn(C2CC2)c2cc(N3CCNCC3)c(F)cc2c1=O` [CIPROFLOXACIN], in assay [5], the outcome was inactive and it took 0.8 µM (≈ 0.265 µg/mL) to inhibit growth (MIC).
